In brackets after ≈: the same amount, converted by molar mass. Entries after “also recorded” stand apart in the source; their conditions may differ. Like-named read-outs stand apart in the source and are kept apart here.

The subject of data set [1] is A549. Briefly: MTT cytotoxicity assay, A549. The class given is cell-based, human. The settings on record: for antiproliferative effect of isolated compounds (in words): A549 lung cancer cells, tested concentrations 0.5–50 µM; for IC50: Homo sapiens, A549, 48 h, MTT, 48 h, read-out: IC50 ± SEM, A549. The procedure:
(§1) Adenocarcinomic human alveolar basal epithelial cell line (A549), human cervical cancer cell line (HeLa), human breast cancer cell line (MCF‐7), human hepatocellular carcinoma cell line (HepG2), and human bronchial epithelial cell line (BEAS‐2B) were used for the cytotoxicity test panel of crude extract. […] Therefore, A549 was used in further activity‐guided fractionation and isolation studies. The cell lines were cultured in Dulbecco's Modified Eagle Medium (DMEM) supplemented with 10% fetal bovine serum (FBS), 1% L‐glutamine, and 1% penicillin‐streptomycin. Cells were maintained in an incubator at 37°C under 5% CO2.
(§2) MTT assay was used to determine the cytotoxic activity of the crude extract, subextracts, main fractions, and isolated compounds. MTT assay, called the “gold standard” of cell viability tests, is based on measuring metabolic activity. The cells reaching sufficient confluence were counted and plated in 96‐well plates (6 × 10^3 cells/well). After 24 h, cells were treated with five concentrations of the extracts (1–100 µg/mL), main fractions (1–100 µg/mL), or pure compounds (0.5–50 µM) in DMSO. Doxorubicin (10/3/1/0.3 µM) was used as a positive control. The plates were incubated with test materials for 48 h. After treatment, the supernatant was removed, and fresh medium and MTT solution (1 g/L in PBS) were added to each well. The cells were incubated for three h at 37°C. The resulting formazan crystals were dissolved in DMSO, and finally, the absorbance was detected at 570 nm using a spectrophotometer (SpectraMax i3x; Molecular Devices, San Jose, CA, USA). All data were collected from three independent experiments, and at least n = 6 data points were obtained. IC50 values were calculated as µg/mL for extracts or fractions and as µM for pure compounds.
On the technique in general: Tetrazolium dyes change colour on reduction, which living cells bring about.

A further data set relates to Beas‐2B. Briefly: MTT cytotoxicity assay, Beas‐2B healthy cell line. Format: cell-based, human. The settings on record: for IC50: Homo sapiens, BEAS-2B, 48 h, MTT, read-out: IC50 ± SEM, Beas‐2B. The procedure:
as §1, §2

For data set [2], the system named is A549. Briefly: Selectivity index (IC50 non‐cancerous cells / IC50 cancerous cells). Format: cell-based, human. The settings on record: IC50 Beas‐2B / IC50 A549. The procedure: The selectivity index (SI), which indicates the selectivity between cancer and normal cells, was calculated. The compounds with an SI greater than 1 are more likely to inhibit cancer cells than non‐cancerous cells. SI values were calculated by the formula of [(IC50 values of non‐cancerous cells)/(IC50 values of cancerous cells)].

In a further data set the test system is MCF‐7 cells. Also on record: method as in earlier work. The settings on record: isolated from Sansevieria cylindrica; cited from earlier work.
Setting [3] is: isolated compounds 0.5–50 µM (Table 4).
Setting [4] is: doxorubicin positive control (Table 2 footnote).
Setting [5] is: doxorubicin positive control (Table 3 footnote).

By IC50 is commonly meant the concentration at which inhibition is half-maximal. In the case of `CC(C)(O)[C@H]1Cc2cc3ccc(=O)oc3cc2O1` [Compound 4, nodakenetin], the “antiproliferative effect of isolated compounds (in words)” value (“antiproliferative effect” for short) with A549 [1] is “did not show an antiproliferative effect; also recorded: did not show antiproliferative activity”. Also, the half-maximal inhibitory concentration (IC50) with A549 [1] (setting [3]) and with Beas‐2B (setting [3]) was > 50000 nM throughout.

As to `O=C(O)c1cc2ccc(=O)oc2cc1O` [Compound 1, umbelliferone 6‐carboxylic acid], the “antiproliferative effect” value in the data set with A549 [1] is “did not show an antiproliferative effect; also recorded: did not show antiproliferative activity”. Moreover, the IC50 in the data set with A549 [1] (setting [3]) and in the data set with Beas‐2B (setting [3]) was > 50000 nM each time.

For `COc1cccc2c1C(=O)c1c(O)c3c(c(O)c1C2=O)C[C@@](O)(C(=O)CO)C[C@@H]3O[C@H]1C[C@H](N)[C@H](O)[C@H](C)O1` [Dox, doxorubicin, reference compound], the IC50 with A549 [1] (setting [4]) turned out to be 820 ± 130 nM; in the data set on A549 [1] (setting [5]), 590 ± 50 nM; in the data set with A549 [1] (setting [3]) it was 590 ± 50 nM; with Beas‐2B (setting [4]) it was 340 ± 20 nM; in the data set with Beas‐2B (setting [5]), 70 ± 17 nM; in the data set with Beas‐2B (setting [3]) it was 70 ± 17 nM. The “SI (selectivity index)” value in the data set with A549 [2] (Table 3) was 0.12.

As to `COc1c(O)ccc(C(=O)C(CO)Cc2ccc3c(c2)OCO3)c1O` (stereo not shown) [2′,4′‐dihydroxy‐3′‐methoxy‐3,4‐methylenedioxy‐8‐hydroxymethylene dihydrochalcone], the “IC50, cytotoxic effect against MCF‐7 cells” value with MCF‐7 cells is given as 34 µg/mL (≈ 98.2 µM).

With `COc1cc(O)c(C(=O)C[C@H](O)c2ccc(O)c(CC=C(C)C)c2)c(O)c1` [Compound 3, 2',6'‐dihydroxy‐4'‐methoxy‐3''‐(ɤ,ɤ‐dimethylallyl)‐4''‐hydroxy β‐hydroxydihydrochalcone], the “antiproliferative effect” value with A549 [1] is recorded as “significant activity”. Also, the results for the half-inhibitory concentration (IC50) in the data set on A549 [1] (setting [3]) and in the data set with Beas‐2B (setting [3]) were 13700 ± 800 nM and 12000 ± 1500 nM, respectively. In the data set on A549 [2] (Table 4), the “SI (selectivity index)” value amounted to 0.87. For the same molecule, the “cytotoxicity against normal cells compared with doxorubicin (in words)” value in the data set on Beas‐2B (normal cells (Beas‐2B)) was “lower cytotoxicity against normal cells than doxorubicin”.

Take `O=c1ccc2ccc(O)cc2o1` [Compound 2, umbelliferone]: the “antiproliferative effect” value in the data set with A549 [1] is reported as “did not show an antiproliferative effect; also recorded: did not show antiproliferative activity”. The IC50 with A549 [1] (setting [3]) and in the data set with Beas‐2B (setting [3]) was > 50000 nM in each case.

The values are drawn from article PMC12629158, “Cytotoxic Activity of Opopanax hispidus (Friv.) Griseb.: Characterization of a New Chalcone‐type Compound” (Chemistry & Biodiversity, 2025).
